Measurements taken from US11084781B2, “Diarylureas as CB1 allosteric modulators” (Research Triangle Institute, priority 2017, dated 2021).
“Also recorded” adds a separate entry of the source.

What was measured:
[1] = target: T1, human CB1 receptor (Homo sapiens, UniProt P21554); test: CB1 calcium mobilization assay (antagonist mode, against EC80 of CP55,940); format: cell-based; details: Table 1; against EC80 (100 nM) of CP55,940; mean ± S.E.M.; read-out: CB1 calcium assay IC50
T1 construct: host or cells: CHO-RD-HGA16 cells (CHO cells overexpressing promiscuous Galpha16)

[2] = target: T1, human CB1 receptor; test: CB1 calcium mobilization assay, agonist screen; format: cell-based; details: Table 1; 10,000 nM final concentration; mean ± SD
[3] = target: T2, CB1 receptor (Mus musculus, UniProt P47746); test: [35S]GTP-γ-S binding assay in mouse cerebellar membranes, CP55,940-stimulated; format: biochemical; details: for IC50: CP55,940 (100 nM) stimulation, mean (95% confidence interval)
T2 construct: from tissue; host or cells: cerebellar membranes of adult male CD-1 mice

[4] = Metabolic stability in rat liver microsomes; format: in vitro ADME
Experimental: Metabolic stability assessment was performed by Paraza Pharma Inc. (Montreal, Canada).
Compounds were incubated with rat liver microsomes at 37° C. for a total of 45 minutes. The reaction was performed at pH 7.4 in 100 mM potassium phosphate buffer containing 0.5 mg/mL of rat liver microsomal protein. Phase I metabolism was assessed by adding NADPH to a final concentration of 1 mM and collecting samples at time points 0, 5, 15, 30 and 45 minutes. All collected samples were quenched 1:1 with ice-cold stop solution (1 μM labetalol and 1 μM glyburide in acetonitrile), and centrifuged to remove precipitated protein. Resulting supernatants were further diluted 1:4 with acetonitrile:water (1:1). Samples were analyzed by LC/MS/MS and calculations for half-life, and in-vitro clearance were accomplished using Microsoft Excel (2007).

[5] = test system: cocaine-seeking behavior in rats; test: Reinstatement of extinguished cocaine-seeking behavior; format: in vivo, rat
Experimental: Animals: Adult male Sprague-Dawley rats (Harlan, Indianapolis, Ind.) weighing 280-300 g were used in the study. Animals were housed individually on a 12/12 hr light/dark cycle (behavioral experiments were conducted during the light period) with free access to water and food except during experimental sessions. Animals were maintained and experiments conducted in accordance with the Institutional Animal Care and Use Committee, University at Buffalo, and with the 2011 Guide for the Care and Use of Laboratory Animals (Institute of Laboratory Animal Resources on Life Sciences, National Research Council, National Academy of Sciences, Washington D.C.).
Drug self-administration, extinction and reinstatement: The reinstatement procedure was described in detail elsewhere^37, 38. Briefly, rats were surgically implanted with a chronic indwelling jugular catheter. After one-week recovery, rats were trained to press the active lever (left lever) for infusion of cocaine (0.75 mg/kg/inf) under a fixed ratio [FR] schedule (starting FR=1, which was increased to FR 5 within 5 training sessions) schedule during daily 2-hr sessions for 14 days. Reinforcer deliveries were accompanied by the presentation of a stimulus light over the active lever followed by a 30-s time-out period during which lever presses had no programmed consequence. Following acquisition of cocaine self-administration, extinction of drug-seeking behavior took place during 2-hr daily sessions in which lever pressing produced no consequence. All other conditions remained unchanged. After 7 days of extinction, all rats reached the extinction criteria (total responses less than 20% of the training sessions).
Drug-induced reinstatement test was conducted on the day following the last extinction session. Rats were pretreated with vehicle, compounds 2 (15, 30 mg/kg) or 34 (10 mg/kg) 10 min prior to a priming injection of cocaine (10 mg/kg, i.p.) administered immediately before the start of the reinstatement session.
Data analyses: Data are expressed as mean±S.E.M. Differences in active lever responding between the last extinction session and reinstatement session were determined with paired t tests (within subjects comparison). The effects of compounds 2 on reinstatement were analyzed by a one-way analysis of variance (ANOVA) followed by post hoc Bonferroni's test (between subjects comparison). The effects of compounds 34 on reinstatement was analyzed by Student's t test. P<0.05 was considered statistically significant.

[6] = pretreatment 10 min prior to cocaine prime 10 mg/kg i.p.

T1 sequence (P21554 whole entry): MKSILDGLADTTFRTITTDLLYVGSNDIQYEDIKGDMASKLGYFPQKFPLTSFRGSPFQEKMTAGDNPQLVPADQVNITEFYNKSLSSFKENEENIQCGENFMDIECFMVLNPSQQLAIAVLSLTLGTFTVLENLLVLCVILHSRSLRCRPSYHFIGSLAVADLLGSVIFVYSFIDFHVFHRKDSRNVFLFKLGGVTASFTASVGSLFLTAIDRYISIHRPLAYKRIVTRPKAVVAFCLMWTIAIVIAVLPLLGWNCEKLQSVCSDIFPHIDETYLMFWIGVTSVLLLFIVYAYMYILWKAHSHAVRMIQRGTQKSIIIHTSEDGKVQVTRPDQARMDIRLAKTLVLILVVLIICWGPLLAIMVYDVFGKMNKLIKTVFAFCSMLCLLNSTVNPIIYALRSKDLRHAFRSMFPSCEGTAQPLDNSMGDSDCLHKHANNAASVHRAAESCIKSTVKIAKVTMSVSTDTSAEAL
T2 sequence (P47746 whole entry): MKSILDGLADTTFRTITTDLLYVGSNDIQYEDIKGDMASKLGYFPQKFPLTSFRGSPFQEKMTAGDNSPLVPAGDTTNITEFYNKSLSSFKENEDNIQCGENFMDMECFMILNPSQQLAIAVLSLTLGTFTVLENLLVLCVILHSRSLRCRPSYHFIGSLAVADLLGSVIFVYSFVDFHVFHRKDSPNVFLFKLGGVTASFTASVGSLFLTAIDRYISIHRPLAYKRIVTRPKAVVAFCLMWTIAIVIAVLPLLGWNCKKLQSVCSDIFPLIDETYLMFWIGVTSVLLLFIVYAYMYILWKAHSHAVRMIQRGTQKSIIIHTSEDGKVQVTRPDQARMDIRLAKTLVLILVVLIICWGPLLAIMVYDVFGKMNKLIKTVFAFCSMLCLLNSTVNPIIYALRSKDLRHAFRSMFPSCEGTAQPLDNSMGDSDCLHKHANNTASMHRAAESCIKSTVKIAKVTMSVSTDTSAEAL

Row | IC50 [1] [µM] | CB1 calcium assay Agonist screen (% CP55, 940 Emax) [2] | IC50 [3] [µM] | Clearance ([4]; 0.5 mg/mL, NADPH, 37° C., mean ± S.E.M.) [µL/min/mg] | Increase in metabolic stability relative to B ([4]; half-life vs B) [fold] | half-life ([4]; pH 7.4, 0.5 mg/mL, NADPH, 37° C., mean ± S.E.M.) [h] | microsomal CLint ([4]; pH 7.4, 0.5 mg/mL, NADPH, 37° C., mean ± S.E.M., read-out: Clearance) [µL/min/mg] | Effect on [35S]GTP-γ-S binding level ([3]; CP55,940 as agonist probe) | Structure (SMILES) | Attenuation of cocaine-induced reinstatement of cocaine-seeking behavior ([5]; dose 10 mg/kg, cocaine prime 10 mg/kg i.p.) | Attenuation of cocaine-induced reinstatement of cocaine-seeking behavior [5, 6] | Attenuation of cocaine-induced reinstatement of cocaine-seeking behavior ([5]; dose 30 mg/kg, cocaine prime 10 mg/kg i.p.)
1 | 0.178 ± 0.038 | 14.5 ± 2.5 % CP55, 940 Emax | 0.407 | 33.1 ± 1.0 | ~3 |  |  |  | O=C(Nc1ccc(Cl)cc1)Nc1cccc(-c2ccncc2)c1 [Compound 20, 3-(4-Chlorophenyl)-1-[3-(pyridin-4-yl)phenyl]urea] |  |  | 
2 | 0.023 ± 0.002 | 8.8 ± 1.1 % CP55, 940 Emax | 0.151 |  |  | > 5 | < 4.6 |  | O=C(Nc1ccc(Cl)cc1)Nc1cccc(-c2ccc(F)cc2)c1 [Compound 34, 3-(4-Chlorophenyl)-1-[3-(4-fluorophenyl)phenyl]urea] | produced the same degree of attenuation as that of 30 mg/kg of B | attenuated the resumption of extinguished cocaine-seeking behavior | 
3 | 0.792 ± 0.043 | 28.8 ± 0.2 % CP55, 940 Emax | > 10 |  |  |  |  |  | O=C(Nc1ccc(Cl)cc1)Nc1cccc(N2CC3(COC3)C2)c1 [Compound 84, 3-(4-Chlorophenyl)-1-(3-{2-oxa-6-azaspiro[3.3]heptan-6-yl}phenyl)urea] |  |  | 
4 |  | 28.2 ± 4.8 % CP55, 940 Emax | 0.102 |  |  |  |  | dose-dependently decreased | O=C(Nc1ccc(Cl)cc1)Nc1cccc(-c2cccc(N3CCCC3)n2)c1 [Compound B, 1-(4-Chlorophenyl)-3-{3-[6-(pyrrolidin-1-yl)pyridin-2-yl]phenyl}urea, reference compound] |  | dose-dependently attenuated; also recorded: attenuated the resumption of extinguished cocaine-seeking behavior | significantly reduced cocaine-induced reinstatement behavior
